Laboratory results reported in the supplement of paper PMC10307832.

Legend:
Assay in all cases: relative viability (nuclei count vs DMSO), 5 days (fraction); higher = more cells survive
DM3189 + Palbociclib = compound: C1CN(CCN1)C2=CC=C(C=C2)C3=CN4C(=C(C=N4)C5=CC=NC6=CC=CC=C56)N=C3 [DM3189] + CC(=O)c1c(C)c2cnc(Nc3ccc(N4CCNCC4)cn3)nc2n(C2CCCC2)c1=O [Palbociclib] (partner 0.5 µM)
Procedure, shortened: (§1)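 Relative viability equals treated-well nuclei counts divided by vehicle-well nuclei counts. Counts came from 4× images of lung cancer cell lines grown in 1536-well plates for 5 days after pin-tool dosing on the day after seeding. Dosing used one drug alone or a fixed anchor-drug dose plus five library-drug doses (not always all listed) in √10 steps, and values are medians of duplicate plates.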

DM3189 + Luminespib = compound: C1CN(CCN1)C2=CC=C(C=C2)C3=CN4C(=C(C=N4)C5=CC=NC6=CC=CC=C56)N=C3 [DM3189] + CCNC(=O)c1noc(-c2cc(C(C)C)c(O)cc2O)c1-c1ccc(CN2CCOCC2)cc1 [Luminespib] (partner 0.01 µM)
Procedure, shortened: as §1

DM3189 + Linsitinib = compound: C1CN(CCN1)C2=CC=C(C=C2)C3=CN4C(=C(C=N4)C5=CC=NC6=CC=CC=C56)N=C3 [DM3189] + C[C@]1(O)C[C@@H](c2nc(-c3ccc4ccc(-c5ccccc5)nc4c3)c3c(N)nccn32)C1 [Linsitinib] (partner 1 µM)
Procedure, shortened: as §1

DM3189 + AZD7762 = compound: C1CN(CCN1)C2=CC=C(C=C2)C3=CN4C(=C(C=N4)C5=CC=NC6=CC=CC=C56)N=C3 [DM3189] + NC(=O)Nc1cc(-c2cccc(F)c2)sc1C(=O)N[C@H]1CCCNC1 [AZD7762] (partner 0.2 µM)
Procedure, shortened: as §1

DM3189 + Olaparib = compound: C1CN(CCN1)C2=CC=C(C=C2)C3=CN4C(=C(C=N4)C5=CC=NC6=CC=CC=C56)N=C3 [DM3189] + O=C(c1cc(Cc2n[nH]c(=O)c3ccccc23)ccc1F)N1CCN(C(=O)C2CC2)CC1 [Olaparib] (partner 8 µM)
Procedure, shortened: as §1

| Cell Line | relative viability (DM3189 + Palbociclib; first compound 0.08 µM) | relative viability (DM3189 + Palbociclib; first compound 0.253 µM) | relative viability (DM3189 + Palbociclib; first compound 0.8 µM) | relative viability (DM3189 + Palbociclib; first compound 2.53 µM) | relative viability (DM3189 + Luminespib; first compound 0.08 µM) | relative viability (DM3189 + Luminespib; first compound 0.253 µM) | relative viability (DM3189 + Luminespib; first compound 0.8 µM) | relative viability (DM3189 + Luminespib; first compound 2.53 µM) | relative viability (DM3189 + Linsitinib; first compound 0.08 µM) | relative viability (DM3189 + Linsitinib; first compound 0.253 µM) | relative viability (DM3189 + Linsitinib; first compound 0.8 µM) | relative viability (DM3189 + Linsitinib; first compound 2.53 µM) | relative viability (DM3189 + AZD7762; first compound 0.08 µM) | relative viability (DM3189 + AZD7762; first compound 0.253 µM) | relative viability (DM3189 + AZD7762; first compound 0.8 µM) | relative viability (DM3189 + AZD7762; first compound 2.53 µM) | relative viability (DM3189 + Olaparib; first compound 0.08 µM) | relative viability (DM3189 + Olaparib; first compound 0.253 µM) | relative viability (DM3189 + Olaparib; first compound 0.8 µM) | relative viability (DM3189 + Olaparib; first compound 2.53 µM) |
| --- | --- | --- | --- | --- | --- | --- | --- | --- | --- | --- | --- | --- | --- | --- | --- | --- | --- | --- | --- | --- |
| NCI-H1651 | 0.543 | 0.554 | 0.582 | 0.574 | 0.811 | 0.836 | 0.779 | 1.01 | 1.09 | 1.02 | 1.21 | 0.991 | 0.536 | 0.457 | 0.443 | 0.444 | 0.191 | 0.179 | 0.168 | 0.177 |
| NCI-H1666 | 0.553 | 0.637 | 0.656 | – | 1.15 | 0.983 | 1.05 | 1.07 | 0.861 | 0.808 | 0.842 | 1.04 | 1.11 | 0.812 | 0.878 | 0.941 | 0.714 | 0.682 | 0.691 | – |
| NCI-H1734 | 0.34 | 0.344 | 0.283 | 0.294 | 0.202 | 0.226 | 0.207 | 0.199 | 1.01 | 0.981 | 0.814 | 0.968 | 0.6 | 0.573 | 0.511 | 0.383 | 0.61 | 0.588 | 0.563 | 0.63 |
| NCI-H1755 | 0.467 | 0.431 | 0.403 | 0.396 | 0.384 | 0.476 | 0.425 | 0.419 | 1.02 | 0.911 | 0.881 | 0.934 | 0.482 | 0.455 | 0.615 | 0.372 | 0.821 | 0.831 | 0.717 | 0.922 |
| NCI-H1792 | 0.569 | 0.675 | 0.716 | 0.609 | 0.416 | 0.552 | 0.445 | 0.328 | 0.409 | 0.532 | 0.449 | 0.315 | 0.796 | 0.65 | 0.593 | 0.616 | 0.647 | 0.354 | 0.404 | 0.38 |
| NCI-H1793 | 0.414 | 0.432 | 0.448 | 0.451 | 0.184 | 0.196 | 0.171 | 0.174 | 1.09 | 0.997 | 0.937 | 1.21 | 0.524 | 0.519 | 0.273 | 0.347 | 0.998 | 0.943 | 0.702 | 1.15 |
| NCI-H1915 | 0.506 | 0.47 | 0.437 | 0.481 | 0.697 | 0.817 | 0.606 | 0.485 | 1.12 | 1.05 | 0.928 | 1.11 | 0.708 | 0.639 | 0.521 | 0.637 | 0.264 | 0.253 | 0.222 | 0.231 |
| NCI-H1944 | 0.351 | 0.327 | 0.288 | 0.301 | 0.813 | 0.673 | – | 0.684 | 1.26 | 1.19 | – | 1.21 | 0.547 | 0.55 | 0.576 | 0.446 | 0.385 | 0.405 | 0.35 | 0.378 |
